Data as given in the supplement of paper PMC10307832.

How the values were obtained:
Test in all cases: relative viability (nuclei count vs DMSO), 5 days (fraction); higher = more cells survive
Gemcitabine + Navitoclax = compound: Nc1ccn([C@@H]2O[C@H](CO)[C@@H](O)C2(F)F)c(=O)n1 [Gemcitabine] + CC1(C)CCC(c2ccc(Cl)cc2)=C(CN2CCN(c3ccc(C(=O)NS(=O)(=O)c4ccc(N[C@H](CCN5CCOCC5)CSc5ccccc5)c(S(=O)(=O)C(F)(F)F)c4)cc3)CC2)C1 [Navitoclax] (partner 0.5 µM)
How it was run: (§1)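 A single step with final 0.05% Triton X-100, 1% formaldehyde and 1 ug/ml Hoechst fixed the cells and stained nuclei 5 days after treatment. Lung cancer cell lines in 1536-well plates had been treated by pin tool the day after seeding with one drug alone or a fixed anchor-drug dose plus five library-drug doses (not always all listed) in √10 steps, and nuclei were counted on 4× images. Relative viability is the ratio of nuclei in treated wells to nuclei in vehicle wells, taken as the median of duplicate plates.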

Gemcitabine + Vorinostat = compound: Nc1ccn([C@@H]2O[C@H](CO)[C@@H](O)C2(F)F)c(=O)n1 [Gemcitabine] + O=C(CCCCCCC(=O)Nc1ccccc1)NO [Vorinostat] (partner 1 µM)
How it was run: as §1

Gemcitabine + Pemetrexed = compound: Nc1ccn([C@@H]2O[C@H](CO)[C@@H](O)C2(F)F)c(=O)n1 [Gemcitabine] + Nc1nc2[nH]cc(CCc3ccc(C(=O)N[C@@H](CCC(=O)O)C(=O)O)cc3)c2c(=O)[nH]1 [Pemetrexed] (partner 0.2 µM)
How it was run: as §1

Gemcitabine + Linsitinib = compound: Nc1ccn([C@@H]2O[C@H](CO)[C@@H](O)C2(F)F)c(=O)n1 [Gemcitabine] + C[C@]1(O)C[C@@H](c2nc(-c3ccc4ccc(-c5ccccc5)nc4c3)c3c(N)nccn32)C1 [Linsitinib] (partner 1 µM)
How it was run: as §1

| Cell Line | relative viability (Gemcitabine + Navitoclax; first compound 0.001 µM) | relative viability (Gemcitabine + Navitoclax; first compound 0.003162 µM) | relative viability (Gemcitabine + Navitoclax; first compound 0.01 µM) | relative viability (Gemcitabine + Navitoclax; first compound 0.03162 µM) | relative viability (Gemcitabine + Navitoclax; first compound 0.1 µM) | relative viability (Gemcitabine + Vorinostat; first compound 0.001 µM) | relative viability (Gemcitabine + Vorinostat; first compound 0.003162 µM) | relative viability (Gemcitabine + Vorinostat; first compound 0.01 µM) | relative viability (Gemcitabine + Vorinostat; first compound 0.03162 µM) | relative viability (Gemcitabine + Vorinostat; first compound 0.1 µM) | relative viability (Gemcitabine + Pemetrexed; first compound 0.001 µM) | relative viability (Gemcitabine + Pemetrexed; first compound 0.003162 µM) | relative viability (Gemcitabine + Pemetrexed; first compound 0.01 µM) | relative viability (Gemcitabine + Pemetrexed; first compound 0.03162 µM) | relative viability (Gemcitabine + Pemetrexed; first compound 0.1 µM) | relative viability (Gemcitabine + Linsitinib; first compound 0.001 µM) | relative viability (Gemcitabine + Linsitinib; first compound 0.003162 µM) | relative viability (Gemcitabine + Linsitinib; first compound 0.01 µM) | relative viability (Gemcitabine + Linsitinib; first compound 0.03162 µM) | relative viability (Gemcitabine + Linsitinib; first compound 0.1 µM) |
| --- | --- | --- | --- | --- | --- | --- | --- | --- | --- | --- | --- | --- | --- | --- | --- | --- | --- | --- | --- | --- |
| HCC-366 | 1.03 | 1.01 | 0.656 | 0.014 | 0.0109 | 0.361 | 0.458 | 0.134 | 0.0306 | 0.0198 | 0.155 | 0.212 | 0.189 | 0.0374 | 0.0257 | 0.722 | 0.477 | 0.138 | 0.0302 | 0.0117 |
| HCC-827 | 0.967 | 0.815 | 0.557 | 0.357 | 0.224 | 0.883 | 0.806 | 0.426 | 0.19 | 0.179 | 0.301 | 0.224 | 0.248 | 0.176 | 0.145 | 0.96 | 0.79 | 0.546 | 0.327 | 0.252 |
| HOP-62 | 0.933 | 0.813 | 0.097 | 0.0507 | 0.0459 | 0.661 | 0.353 | 0.0836 | 0.0926 | 0.0697 | 0.323 | 0.299 | 0.15 | 0.0689 | 0.0761 | 1.07 | 0.815 | 0.129 | 0.0627 | 0.056 |
| IA-LM | 0.896 | 0.796 | 0.409 | 0.0336 | 0.0251 | 0.943 | 0.907 | 0.865 | 0.0796 | 0.0532 |  |  |  |  |  | 0.768 | 0.461 | 0.324 | 0.149 | 0.0467 |
| LC-2-ad | 0.431 | 0.4 | 0.236 | 0.118 | 0.0927 | 0.7 | 0.804 | 0.665 | 0.522 | 0.199 | 0.266 | 0.28 | 0.256 | 0.255 | 0.233 | 0.895 | 0.852 | 0.553 | 0.143 | 0.132 |
| LCLC-97TM1 | 0.379 | 0.182 | 0.0922 | 0.0774 | 0.106 | 0.51 | 0.314 | 0.149 | 0.0661 | 0.0642 | 0.174 | 0.19 | 0.0994 | 0.0729 | 0.0912 | 0.147 | 0.159 | 0.117 | 0.104 | 0.136 |
| LCLC-103H |  |  |  |  |  | 0.761 | 0.856 | 0.754 | 0.585 | 0.46 | 0.423 | 0.435 | 0.44 | 0.407 | 0.392 | 1.02 | 1.21 | 0.998 | 0.76 | 0.509 |
| LK-2 | 0.822 | 0.732 | 0.444 | 0.222 | 0.203 | 0.265 | 0.268 | 0.155 | 0.164 | 0.146 | 0.298 | 0.321 | 0.238 | 0.14 | 0.114 | 0.6 | 0.485 | 0.433 | 0.196 | 0.156 |
